Laboratory results taken from patent US4377592A, “Antiarrhythmic activity of cetiedil” (Innothera, priority 1979, dated 1983).
Counter-ions that a name gives are not always drawn. Like-named read-outs stand apart in the source and are kept apart here.

Legend:
[1] = tested on: ventricular fibrillation induced by CaCl2; test: Calcium (CaCl2) induced ventricular fibrillation in the anaesthetized rat, Malinow's technique; assay type: in vivo; conditions: for index LD50/AD50 (ventricular fibrillation): Table 2; for RELATIVE ACTIVITY (ventricular fibrillation): Table 2, relative to cetiedil = 1; for RELATIVE ACTIVITY (death): Table 3, relative to cetiedil = 1
Protocol: According to MALINOW, M. R., et coll. Acta. Physiol Latino. Americ.
Using the anaesthetized rat, 200 mg/kg of CaCl2 was injected two minutes after the substances to be tested. The ECG was recorded continuously in lead II.

[2] = tested on: polymorphous arrhythmias induced by adrenaline petrol-ether; test: Polymorphous arrhythmias induced in the anaesthetised guinea-pig by adrenaline and petrol ether; assay type: in vivo; conditions: for ED50: Cavia porcellus, ip, read-out: ED50 (dose decreasing by half the duration of the disturbances); for index I = LD50 IV/ED50: Table 1, adrenaline petrol-ether, guinea-pig ED50, mouse LD50; for RELATIVE ACTIVITY: Table 1, relative to cetiedil = 1
Source text: Adrenaline in high dosage is a powerful arrhythmogenic stimulus to a myocardia induced by petrol ether, as recognized in the guinea-pig by LE MARECHAL J., Thesis Doct.

[3] = tested on: chloroform-induced ventricular fibrillation; test: Chloroform-induced ventricular fibrillation in the mouse; assay type: in vivo
Source text: In this technique first described by LAWSON, J. W. in J. Pharm. Exp. Ther. 1968, 160, 22 and Vargaftig, B. B. et al in Eur. J. Pharmacol. 1969, 6, 49, the inhalation of chloroform vapour produced in the mouse apnea followed by ventricular fibrillation.
The mechanism of this technique remains unknown.

[4] = in vivo; conditions: mouse, iv
[5] = tested on: chloroform-induced ventricular fibrillation; conditions: mouse, chloroform test, IP; other substances from Linee thesis 1975; cited from earlier work
[6] = tested on: rabbit cornea oculo-palpebral reflex; assay type: in vivo; conditions: for TOTAL DEGREE OF ANAESTHESIA FOR 60 minutes: rabbit cornea, 1.00 g./100, HCl salt, total 13 no anaesthesia, 1300 complete; for local anaesthetic effect compared with cetiedil 0.5%: rabbit
Source text: For the purpose of this study, the classical technique of REGNIER J., Thesis Doct. […] This consists of repeating touching of the rabbit cornea until an oculo-palpebral reflex is obtained. It should be noted that […], in common with the reference substances, was used in the form of the HCl Salt.

[7] = tested on: isolated guinea-pig atrial; test: Stimulated isolated guinea pig atrial (technique of Dawes); assay type: cell-based
Source text: (§1) The technique of DAWES (modified by ALLIES ET AL.) was used with the isolated guinea-pig atrial, and the technique of DUCHENE-MARULLAZ, J. Pharmacol. Paris, 1970, 1, 539, in the anaesthetized dog. This method is used to study the permeability of atrio-ventricular conduction, and thus more precisely conduction at the level of Tawara's nod.

[8] = tested on: rat aortic fragments; test: Contraction of rat aorta fragment induced by potassium depolarisation; assay type: cell-based; conditions: mean ± SD, potassium depolarisation
Protocol: Fragments of aorta removed from rats are immersed in survival fluid in the presence of carbogene at 37° C. By modifying the ionic equilibrium of the survival medium, it was possible to study the effects of […] on contraction of the aortic fragments induced by depolarisation with potassium or calcium.

[9] = tested on: ventricular tachycardia induced by Ouabain; test: Ouabain induced ventricular tachycardia in the dog (Lucchesi and Hardman); assay type: in vivo; conditions: at the average effective dose
Source text: The method used is that of […] and HARDMAN, J. Pharmacol. Exp. Ther. 1961, 132, 372-381. Ventricular tachycardia was obtained by the sequential administration of Ouabain until a permanent ventricular tachycardia developed. Following observation of the effect of the substance, the reappearance of this ventricular tachycardia following the injection of insulin was confirmed, thereby showing the persistence within the heart of a toxic dose of Ouabain (Average dose of Ouabain 71.25 γ kg IV).

[10] = tested on: atrio-ventricular conduction; test: Atrio-ventricular conduction in the anaesthetized dog (Duchene-Marullaz); assay type: in vivo
Source text: as §1

[11] = Rattus norvegicus, iv, read-out: AD50 protection against death
[12] = Rattus norvegicus, iv, read-out: AD 50 protection against ventricular fibrillation
[13] = anaesthetized rat, CaCl2 200 mg/kg IV two minutes after substance, read-out: AD 50 protection against ventricular fibrillation
[14] = guinea-pig, urethane 1.2 g/kg IP, substance 5 minutes before intoxication
[15] = mouse, chloroform vapour inhalation, IP, read-out: ED50

For CC[C@H]1[C@@H]2C[C@H]3[C@@H]4N(C)c5ccccc5[C@]45C[C@@H]([C@H]2[C@H]5O)N3[C@@H]1O [Ajmaline], the ED50 [1, 11] was > 5 mg/kg, the ED50 [1, 12] was 2.25 mg/kg and the “index LD50/AD50 (ventricular fibrillation)” value [1] was 11,56. For the same molecule, the “RELATIVE ACTIVITY (ventricular fibrillation)” value [1] was 0,62, the protection against death ([1]; rat, dose of 5 mg/kg) was “none against death” and the “protection against ventricular fibrillation” value ([1]; rat, dose of 5 mg/kg) was “protected all of the animals against ventricular fibrillation”. For the same molecule, the ED50 [2] was 0.6 mg/kg, the “index I = LD50 IV/ED50” value [2] was 43.33 and the “RELATIVE ACTIVITY” value [2] was 0.91. For the same molecule, the ED50 ([3]; Mus musculus, ip) was 6.6 mg/kg and the LD50 [4] was 26 mg/kg.

For CN1[C@@H]2CC[C@H]1C[C@@H](OC(=O)C(CO)c1ccccc1)C2 (stereo partly drawn) [Atropine], the ED50 [5] is listed as 100 mg/kg IP.

With COC(=O)[C@H]1[C@@H](OC(=O)c2ccccc2)C[C@@H]2CC[C@H]1N2C [COCAINE] the “TOTAL DEGREE OF ANAESTHESIA FOR 60 minutes” value [6] was 706.4 and the “local anaesthetic effect compared with cetiedil 0.5%” value ([6]; 1 p.100) was “same effect”.

In the case of CC(C)N(CCC(C(N)=O)(c1ccccc1)c1ccccn1)C(C)C (stereo not drawn) [DISOPYRAMIDE], the “% DECREASE SPONTANEOUS RATE” value ([7]; concentration 10^-5) is reported as 8%, the “% DECREASE m.f.s. (maximum frequency followed by the atrial)” value ([7]; concentration 10^-5) is reported as 18% and the “% DECREASE SPONTANEOUS RATE” value ([7]; concentration 10^-6) is reported as 6%. The “% DECREASE m.f.s. (maximum frequency followed by the atrial)” value ([7]; concentration 10^-6) was 6%.

In the case of CN(C)CCCN1c2ccccc2CCc2ccccc21 [Imipramine], the ED50 [5] is listed as 30 mg/kg IP.

For CCN(CC)CCOC(=O)c1ccc(N)cc1 [PROCAINE], the “TOTAL DEGREE OF ANAESTHESIA FOR 60 minutes” value [6] was 61.5, the “local anaesthetic effect compared with cetiedil 0.5%” value ([6]; 1 p.100) was “only half less active” and the “pD'2 (mean)” value [8] was 2.55 ± 0.06.

In the case of CCN(CC)CCNC(=O)c1ccc(N)cc1 [Procainamide], the ED50 [1, 11] is reported as 17 mg/kg, the “index LD50/AD50 (ventricular fibrillation)” value [1] is reported as 7,24 and the “RELATIVE ACTIVITY (ventricular fibrillation)” value [1] is reported as 0,39. For the same molecule, the “index LD50/AD50 (death)” value ([1]; Table 3) was 6.18, the “RELATIVE ACTIVITY (death)” value [1] was 0.38 and the ED50 [1, 13] was 14.5 mg/kg. The ED50 [2, 14] was 1.4 mg/kg, the “index I = LD50 IV/ED50” value [2] was 75.00 and the “RELATIVE ACTIVITY” value [2] was 1.58. For the same molecule, the ED50 [3, 15] was 80 mg/kg and the LD50 [4] was 105 mg/kg.

For CC(C)NCC(O)COc1cccc2ccccc12 (stereo not drawn) [Propranolol], the “TOTAL DEGREE OF ANAESTHESIA FOR 60 minutes” value [6] was 876.5, the “local anaesthetic effect compared with cetiedil 0.5%” value ([6]; in vivo) was “same effect” and the ED50 [1, 11] was 3.9 mg/kg. For the same molecule, the “RELATIVE ACTIVITY (ventricular fibrillation)” value [1] was 0,36, the “RELATIVE ACTIVITY (death)” value [1] was 0.35 and the ED50 [1, 13] was 3.25 mg/kg. For the same molecule, the ED50 [2, 14] was 0.38 mg/kg, the “RELATIVE ACTIVITY” value [2] was 1.22 and the “% DECREASE m.f.s. (maximum frequency followed by the atrial)” value ([7]; concentration 10^-6) was 34%. For the same molecule, the “% DECREASE m.f.s. (maximum frequency followed by the atrial)” value ([7]; concentration 10^-7) was 7%.

For C=C[C@H]1C[N@@]2CC[C@H]1C[C@@H]2[C@@H](O)c1ccnc2ccc(OC)cc12 [Quinidine sulfate, reference compound], the “duration of return to sinus rhythm” value [9] was “less than 30 min”.

With C=C[C@H]1C[N@@]2CC[C@H]1C[C@@H]2[C@@H](O)c1ccnc2ccc(OC)cc12 [Quinidine] the ED50 [1, 11] was 8 mg/kg, the ED50 [1, 12] was 5.5 mg/kg and the “% DECREASE SPONTANEOUS RATE” value ([7]; concentration 10^-5) was 15%. The “% DECREASE m.f.s. (maximum frequency followed by the atrial)” value ([7]; concentration 10^-5) was 25%, the “% DECREASE SPONTANEOUS RATE” value ([7]; concentration 10^-6) was 3% and the “% DECREASE m.f.s. (maximum frequency followed by the atrial)” value ([7]; concentration 10^-6) was 10%. The “% DECREASE SPONTANEOUS RATE” value ([7]; concentration 10^-7) was 0%, the “effect on atrio-ventricular conduction after denervation” value ([10]; anaesthetized dog, denervated) was “Depression of atrio-ventricular conduction is significant and proportional to the dose administered” and the “effect on atrio-ventricular conduction” value ([10]; anaesthetized dog, intact) was “not changed in the intact animal”. For the same molecule, the chronotropic effect ([10]; dog) was “positive or negative action according to whether the dog is intact or denervated”, the ED50 [3, 15] was 26 mg/kg and the LD50 [4] was 67 mg/kg.

For COC(=O)[C@@H]1[C@H]2C[C@H]3c4[nH]c5ccccc5c4CCN3C[C@@H]2CC[C@@H]1O [Yohimbine], the ED50 [5] is listed as 10 mg/kg IP.
